This test deals with Acinetobacter baumannii ATCC17961. Description: Antimicrobial susceptibility testing: 90% growth inhibitory concentration (IC90) determination in Iso-Sensitest broth, OD600 growth. It is filed as cell-based. The gist of the method:
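Growth monitored at 600 nm every 20 min for 16 h at 35±2 °C, inoculum ~5×10^(5) CFU/ml in Iso-Sensitest medium. Compounds in 10-point twofold series, e.g. 50 to 0.097 μM final; 90% inhibitory concentration taken from log-phase growth.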

The mark [1] stands for this setting: Acinetobacter baumannii, ATCC17961, 16 h, read-out: A. baumannii ATCC 17961 IC90 (uM), strain ATCC 17961, OD600 growth over 16 h.
Setting [2] is: Acinetobacter baumannii, ATCC17961, 16 h, strain ATCC 17961, OD600 growth over 16 h, read-out: A. baumannii ATCC 17961 IC90.
[3] abbreviates: strain ATCC 17961, OD600 growth over 16 h, read-out: A. baumannii ATCC 17961 IC90.

Structures are written as SMILES. Where a name gives a salt, the structure may show the parent alone. Read-outs that look alike come from different tables or passages of the source.

Usually IC90 stands for the concentration at which the effect reaches the 90% level.

Turning to `CCc1cc(Nc2nccn3c(-c4cn(Cc5nccn5C)nc4C(F)(F)F)cnc23)ccc1C(=O)NCCCNCCCCNCCCN` [Example 84, N-[3-[4-(3-aminopropylamino)butylamino]propyl]-2-ethyl-4-[[3-[1-[(1-methylimidazol-2-yl)methyl]-3-(trifluoromethyl)pyrazol-4-yl]imidazo[1,2-a]pyrazin-8-yl]amino]benzamide hydrochloride], the concentration for an effect of 90% (IC90) under setting [1] was 2.98 µM.

`CCc1cc(Nc2nccn3c(-c4cn(CC#N)nc4C(F)(F)F)cnc23)ccc1C(=O)N[C@H](C)C(=O)N1CC[C@@H](N)C1` [Example 732, N-[(1R)-2-[(3R)-3-aminopyrrolidin-1-yl]-1-methyl-2-oxo-ethyl]-4-[[3-[1-(cyanomethyl)-3-(trifluoromethyl)pyrazol-4-yl]imidazo[1,2-a]pyrazin-8-yl]amino]-2-ethyl-benzamide formate]: under setting [1], the 90% effect concentration (IC90) worked out at 0.48 µM. Consider `CCc1cc(Nc2nccn3c(-c4cn(CC(F)F)nc4C(F)(F)F)cnc23)ccc1C(=O)NCCCNC(=O)[C@H]1C[C@H](N)C1` [Example 542, N-(3-((1r,3r)-3-aminocyclobutane-1-carboxamido)propyl)-4-((3-(1-(2,2-difluoroethyl)-3-(trifluoromethyl)-1H-pyrazol-4-yl)imidazo[1,2-a]pyrazin-8-yl)amino)-2-ethylbenzamide formate], for which the concentration for an effect of 90% (IC90) under setting [2] worked out at 0.196 µM.

Consider `Cc1cc(Nc2nccn3c(-c4c[nH]nc4C(F)(F)F)cnc23)cc(F)c1C(=O)N[C@H](C)CN` [Example 83, N-[(2R)-1-aminopropan-2-yl]-2-fluoro-6-methyl-4-[[3-[3-(trifluoromethyl)-1H-pyrazol-4-yl]imidazo[1,2-a]pyrazin-8-yl]amino]benzamide], for which the IC90 under setting [2] was determined as 2.46 µM. As for `CCc1cc(Nc2nccn3c(-c4cn(CC#N)nc4C(F)(F)F)cnc23)ccc1C(=O)NCCCNC(=O)[C@H]1CC[C@@H](N)C1` [Example 484, N-(3-((1S,3R)-3-aminocyclopentane-1-carboxamido)propyl)-4-((3-(1-(cyanomethyl)-3-(trifluoromethyl)-1H-pyrazol-4-yl)imidazo[1,2-a]pyrazin-8-yl)amino)-2-ethylbenzamide formate], the IC90 under setting [2] was 0.154 µM. Still for that read-out and setting: to `C#CCNCCCNC(=O)c1c(C)cc(Nc2nccn3c(-c4c[nH]nc4C(F)(F)F)cnc23)cc1F` [Example 85, 2-fluoro-6-methyl-N-[3-(prop-2-ynylamino)propyl]-4-[[3-[3-(trifluoromethyl)-1H-pyrazol-4-yl]imidazo[1,2-a]pyrazin-8-yl]amino]benzamide] belongs 3.26 µM. On the same count and under the same terms, to `CCc1cc(Nc2nccn3c(-c4cn(CC#N)nc4C(F)(F)F)cnc23)ccc1C(=O)NCCCCCCN` [Example 227, N-(6-aminohexyl)-4-[[3-[1-(cyanomethyl)-3-(trifluoromethyl)pyrazol-4-yl]imidazo[1,2-a]pyrazin-8-yl]amino]-2-ethylbenzamide] belongs 0.17 µM. As for `N#CCNC(=O)c1ccc(Nc2nccn3c(-c4cn(CC#N)nc4C(F)(F)F)cnc23)cc1Cl` [Example 231, 2-chloro-N-(cyanomethyl)-4-[[3-[1-(cyanomethyl)-3-(trifluoromethyl)pyrazol-4-yl]imidazo[1,2-a]pyrazin-8-yl]amino]benzamide], under setting [2], the concentration for an effect of 90% (IC90) came out at 0.102 µM. Regarding `Cc1cc(Nc2nccn3c(-c4c[nH]nc4C(F)(F)F)cnc23)ccc1C(=O)N1CCN(C(=O)[C@H](C)N)CC1` [Example 331, (2S)-2-amino-1-[4-[2-methyl-4-[[3-[3-(trifluoromethyl)-1H-pyrazol-4-yl]imidazo[1,2-a]pyrazin-8-yl]amino]benzoyl]piperazin-1-yl]propan-1-one], the IC90 under setting [2] stood at 0.401 µM. In the case of `C#CCn1cc(-c2cnc3c(Nc4ccc(C(=O)NC)c(CC)c4)nccn23)c(C(F)(F)F)n1` [Example 335, 2-ethyl-N-methyl-4-[[3-[1-prop-2-ynyl-3-(trifluoromethyl)pyrazol-4-yl]imidazo[1,2-a]pyrazin-8-yl]amino]benzamide], under setting [2], the IC90 was found to be 0.148 µM. On to `CCc1cc(Nc2nccn3c(-c4cn(CC(F)F)nc4C(F)(F)F)cnc23)ccc1C(=O)NCCNC(=O)[C@H]1C[C@@H](N)C1` [Example 624, cis-N-(2-((1s,3s)-3-aminocyclobutane-1-carboxamido)ethyl)-4-((3-(1-(2,2-difluoroethyl)-3-(trifluoromethyl)-1H-pyrazol-4-yl)imidazo[1,2-a]pyrazin-8-yl)amino)-2-ethylbenzamide formate], for which the IC90 under setting [2] was 0.19 µM. Same read-out and setting: to `CCc1cc(Nc2nccn3c(-c4cn(CC(F)F)nc4C(F)F)cnc23)ccc1C(=O)N1CCN(C(=O)[C@H]2C[C@H](N)C2)CC1` [Example 743, (4-((1r,3r)-3-aminocyclobutane-1-carbonyl)piperazin-1-yl)(4-((3-(1-(2,2-difluoroethyl)-3-(difluoromethyl)-1H-pyrazol-4-yl)imidazo[1,2-a]pyrazin-8-yl)amino)-2-ethylphenyl) methanone] belongs 0.532 µM; to `CCc1cc(Nc2nccn3c(-c4cn(CC(F)F)nc4C(F)(F)F)cnc23)ccc1C(=O)NCCNC(=O)[C@@H]1C[C@@H](O)CN1` [Example 667, (2S,4R)-N-(2-(4-((3-(1-(2,2-difluoroethyl)-3-(trifluoromethyl)-1H-pyrazol-4-yl)imidazo[1,2-a]pyrazin-8-yl)amino)-2-ethylbenzamido)ethyl)-4-hydroxypyrrolidine-2-carboxamide], 0.294 µM. For `N#CCn1cc(-c2cnc3c(Nc4ccc(C(=O)N5CCN(C(=O)NC6CNC6)CC5)c(Cl)c4)nccn23)c(C(F)(F)F)n1` [Example 214, N-(azetidin-3-yl)-4-[2-chloro-4-[[3-[1-(cyanomethyl)-3-(trifluoromethyl)pyrazol-4-yl]imidazo[1,2-a]pyrazin-8-yl]amino]benzoyl] piperazine-1-carboxamide formate], the concentration for an effect of 90% (IC90) under setting [3] was 0.349 µM. With `CCc1cc(Nc2nccn3c(-c4c[nH]nc4C(F)(F)F)cnc23)ccc1C(=O)NCCNC(=O)[C@@H](C)N` [Example 696, (R)-N-(2-(2-aminopropanamido)ethyl)-2-ethyl-4-((3-(3-(trifluoromethyl)-1H-pyrazol-4-yl)imidazo [1,2-a]pyrazin-8-yl)amino)benzamide formate], the concentration for an effect of 90% (IC90) under setting [1] amounted to 0.37 µM. Regarding `N[C@H]1CC[C@@H](NC(=O)N2CCN(C(=O)c3ccc(Nc4nccn5c(-c6c[nH]nc6C(F)(F)F)cnc45)cc3Cl)CC2)C1` [Example 238, N-[(1R,3S)-3-aminocyclopentyl]-4-[2-chloro-4-[[3-[3-(trifluoromethyl)-1H-pyrazol-4-yl]imidazo[1,2-a]pyrazin-8-yl]amino]benzoyl] piperazine-1-carboxamide formate], under setting [3], the concentration for an effect of 90% (IC90) came to 0.2 µM.

For the compound `C#CCNC(=O)c1c(C)cc(Nc2nccn3c(-c4cn(CC#N)nc4C(F)(F)F)cnc23)cc1F` [Example 4, 4-[[3-[1-(cyanomethyl)-3-(trifluoromethyl)pyrazol-4-yl]imidazo[1,2-a]pyrazin-8-yl]amino]-2-fluoro-6-methyl-N-prop-2-ynylbenzamide], the concentration for an effect of 90% (IC90) under setting [2] amounted to 0.132 µM. As for `C#CCn1cc(-c2cnc3c(Nc4cc(C)c(C(=O)N5CCN(C(=O)[C@H]6CC[C@H](O)N6)CC5)c(F)c4)nccn23)c(C(F)(F)F)n1` [Example 646, (4-(2-fluoro-6-methyl-4-((3-(1-(prop-2-yn-1-yl)-3-(trifluoromethyl)-1H-pyrazol-4-yl)imidazo[1,2-a]pyrazin-8-yl)amino)benzoyl)piperazin-1-yl)((2R,5S)-5-hydroxypyrrolidin-2-yl)methanone], the IC90 under setting [2] was found to be 0.243 µM.

Values taken from patent publication US20230203043A1, “NOVEL IMIDAZOPYRAZINE DERIVATIVES” (Hoffmann-La Roche Inc., priority 2020, published 2023).
